{"source": "patent US7226936B2", "about": "“Pyridinic sulfonamide derivatives method of production and use thereof” (University De Liege, priority 2001, dated 2007)", "key": {"[1]": {"tested_on": "rat paw oedema", "assay": "Carrageenin-induced rat paw oedema model", "type": "in vivo, Wistar rats", "conditions": "for percentage of growth of the paw after injection of carrageneen: 1 h before carrageenin, paw weighed 3 h after, mean±standard deviation, n=6, control 96 ± 8.7", "method": "The activity of the derivatives has also been evaluated by using a rat paw oedema pharmacological model.\nIn Carrageenin-induced rat paw oedema model, Wistar rats were used. The mean weight of the animals was 250 g. The animals were treated with an intraperitoneal injection of the drug at the appropriate concentration (solution at the concentration of 10 mg/mL in DMSO). Lambda carrageenin (0.1 mL; 1%) was injected one hour later in the plantar region of the right hand paw. Three hours thereafter, the rats were euthanasied by injection of nembutal (100 mg/kg) and the paws were cutted at the ankle. The swelling was calculated as a percentage increase in the weight of the control paw.\nResults are expressed as percentage of growth of the paw after injection of carrageneen (mean±standard deviation, n=6)."}, "[2]": {"target": "T1, COX-2 (Homo sapiens, UniProt P35354)", "T1 construct": "endogenous in cells; host or cells: whole blood (blood cells)", "T1 sequence (P35354 18-604)": "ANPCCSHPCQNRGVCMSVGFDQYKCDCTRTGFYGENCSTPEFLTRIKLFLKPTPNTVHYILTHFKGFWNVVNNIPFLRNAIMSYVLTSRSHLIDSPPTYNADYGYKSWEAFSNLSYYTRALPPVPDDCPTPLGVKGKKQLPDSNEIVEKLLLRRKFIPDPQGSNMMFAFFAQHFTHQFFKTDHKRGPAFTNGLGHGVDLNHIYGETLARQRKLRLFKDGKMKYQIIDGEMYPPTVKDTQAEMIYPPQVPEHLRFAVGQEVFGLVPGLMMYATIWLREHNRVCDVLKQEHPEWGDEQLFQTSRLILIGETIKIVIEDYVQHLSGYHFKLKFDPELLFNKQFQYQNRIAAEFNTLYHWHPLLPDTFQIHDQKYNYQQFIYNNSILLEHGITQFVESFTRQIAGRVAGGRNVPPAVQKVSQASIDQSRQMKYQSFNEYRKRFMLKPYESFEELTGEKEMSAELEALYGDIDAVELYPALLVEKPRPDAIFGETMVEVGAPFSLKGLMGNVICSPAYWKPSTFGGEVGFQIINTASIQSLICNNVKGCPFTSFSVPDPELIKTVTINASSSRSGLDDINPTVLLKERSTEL", "assay": "whole blood assay, COX-2 inhibition", "type": "cell-based"}}, "data": [{"smiles": "O=S(=O)(Nc1ccncc1Oc1ccccc1)C(F)(F)F", "note": "[Compound 1, N-(3-phenoxy-4-pyridinyl)trifluoromethane-sulfonamide]", "values": [{"measurement": "percentage of growth of the paw after injection of carrageneen", "setting": "[1]; 5 mg/kg intraperitoneal", "result": "101.0 ± 8.1", "unit": "percentage"}, {"measurement": "percentage of growth of the paw after injection of carrageneen", "setting": "[1]; 10 mg/kg intraperitoneal", "result": "74.7 ± 7.2", "unit": "percentage"}, {"measurement": "percentage of growth of the paw after injection of carrageneen", "setting": "[1]; 30 mg/kg intraperitoneal", "result": "54.1 ± 17.5", "unit": "percentage"}, {"measurement": "anti-inflammatory effect in vivo (in words)", "setting": "[1]; conclusion from Table 2", "result": "presents an anti-inflammatory effect in vivo"}, {"measurement": "activity as COX-2 inhibitor (in words)", "setting": "[2]; conclusion from Table 1", "result": "active as COX-2 inhibitor"}, {"measurement": "IC50", "setting": "[2]; estimated IC50, whole blood assay", "result": 0.4, "unit": "µM"}]}]}
